Source: PubChem BioAssay AID2060614 (Molecular Pharmacology Branch, DTP, NCI, 2025)
Values joined by “and” are separate entries in the source; they are usually repeats but may differ in a detail not shown here. Equal values may be shown once. Blank lines part the entries; values can stand above or below the molecule they belong to.

Tested on: 598228-144-R-J1-PDC complex spheroids, viability
Test: Anticancer human tumor 598228-144-R-J1-PDC patient-derived serous endometrial adenocarcinoma cell line growth inhibition [CLK]
Settings: for viability, T/C: stronger effect = lower value
Method in brief: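 Patient-derived tumor cells grown as complex spheroids with HUVEC endothelial cells and mesenchymal stem cells, treated with drug combinations. Concentrations descend in half-log steps from near clinical Cmax, or from 10 microM if Cmax unknown.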

[1] = curve of first compound, second compound 0.0316 µM
[2] = curve of first compound, second compound 0.1 µM
[3] = curve of first compound, second compound 0.316 µM
[4] = curve of first compound, second compound 1 µM
[5] = curve of first compound, second compound 3.16 µM
[6] = curve of first compound, second compound 10 µM
[7] = second compound 0.0316 µM, first compound 0.0316 µM
[8] = second compound 0.0316 µM, first compound 0.1 µM
[9] = second compound 0.0316 µM, first compound 0.316 µM
[10] = second compound 0.0316 µM, first compound 1 µM
[11] = second compound 0.0316 µM, first compound 3.16 µM
[12] = second compound 0.0316 µM, first compound 10 µM
[13] = second compound 0.1 µM, first compound 0.0316 µM
[14] = second compound 0.1 µM, first compound 0.1 µM
[15] = second compound 0.1 µM, first compound 0.316 µM
[16] = second compound 0.1 µM, first compound 1 µM
[17] = second compound 0.1 µM, first compound 3.16 µM
[18] = second compound 0.1 µM, first compound 10 µM
[19] = second compound 0.316 µM, first compound 0.0316 µM
[20] = second compound 0.316 µM, first compound 0.1 µM
[21] = second compound 0.316 µM, first compound 0.316 µM
[22] = second compound 0.316 µM, first compound 1 µM
[23] = second compound 0.316 µM, first compound 3.16 µM
[24] = second compound 0.316 µM, first compound 10 µM
[25] = second compound 1 µM, first compound 0.0316 µM
[26] = second compound 1 µM, first compound 0.1 µM
[27] = second compound 1 µM, first compound 0.316 µM
[28] = second compound 1 µM, first compound 1 µM
[29] = second compound 1 µM, first compound 3.16 µM
[30] = second compound 1 µM, first compound 10 µM
[31] = second compound 3.16 µM, first compound 0.0316 µM
[32] = second compound 3.16 µM, first compound 0.1 µM
[33] = second compound 3.16 µM, first compound 0.316 µM
[34] = second compound 3.16 µM, first compound 1 µM
[35] = second compound 3.16 µM, first compound 3.16 µM
[36] = second compound 3.16 µM, first compound 10 µM
[37] = second compound 10 µM, first compound 0.0316 µM
[38] = second compound 10 µM, first compound 0.1 µM
[39] = second compound 10 µM, first compound 0.316 µM
[40] = second compound 10 µM, first compound 1 µM
[41] = second compound 10 µM, first compound 3.16 µM
[42] = second compound 10 µM, first compound 10 µM
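Further: spheroids exposed to compounds for seven days before readout.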
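Wherever viability, T/C is given: 100% = DMSO vehicle control wells.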

SMILES: CC(=O)O[C@H]1C(=O)[C@@]2(C)[C@H]([C@H](OC(=O)c3ccccc3)[C@]3(O)C[C@H](OC(=O)[C@H](O)[C@@H](NC(=O)c4ccccc4)c4ccccc4)C(C)=C1C3(C)C)[C@]1(OC(C)=O)CO[C@@H]1C[C@@H]2O
viability, T/C (compound 0.0316 µM): 35.4% and 37%
viability, T/C (compound 0.1 µM): 33.6% and 37%
viability, T/C (compound 0.316 µM): 31% and 30.4%
viability, T/C (compound 1 µM): 25.1% and 34.2%
viability, T/C (compound 3.16 µM): 32.1% and 36.1%
viability, T/C (compound 10 µM): 32.5% and 47.5%
IC50 (curve of compound): < 31.6 nM

SMILES: CC(CO)NC(=O)c1cc(-c2ccc(Cl)cc2)nn(-c2cnn(C)c2)c1=O (stereo not given) + CN1CCN(c2cc(C(=O)Nc3cc4cc(-c5cnn(C)c5)ccc4cn3)ccn2)CC1
IC50 [1]: > 10000 nM
IC50 [2]: > 10000 nM
IC50 [3]: < 31.6 nM
IC50 [4]: < 31.6 nM
IC50 [5]: < 31.6 nM
IC50 [6]: < 31.6 nM
viability, T/C [7]: 129%
viability, T/C [8]: 113%
viability, T/C [9]: 128%
viability, T/C [10]: 120%
viability, T/C [11]: 115%
viability, T/C [12]: 108%
viability, T/C [13]: 130%
viability, T/C [14]: 128%
viability, T/C [15]: 135%
viability, T/C [16]: 125%
viability, T/C [17]: 135%
viability, T/C [18]: 130%
viability, T/C [19]: 21.2%
viability, T/C [20]: 17%
viability, T/C [21]: 17.9%
viability, T/C [22]: 17.5%
viability, T/C [23]: 18.3%
viability, T/C [24]: 18.2%
viability, T/C [25]: 2.7%
viability, T/C [26]: 2.28%
viability, T/C [27]: 1.94%
viability, T/C [28]: 1.84%
viability, T/C [29]: 2.34%
viability, T/C [30]: 1.94%
viability, T/C [31]: 2.22%
viability, T/C [32]: 2.04%
viability, T/C [33]: 1.99%
viability, T/C [34]: 2.65%
viability, T/C [35]: 2.74%
viability, T/C [36]: 2.69%
viability, T/C [37]: 1.3%
viability, T/C [38]: 1.36%
viability, T/C [39]: 2.02%
viability, T/C [40]: 1.53%
viability, T/C [41]: 3.43%
viability, T/C [42]: 2.58%

SMILES: C=CC(=O)N1CCN(c2nc(=O)n(-c3c(C)ccnc3C(C)C)c3nc(-c4c(O)cccc4F)c(F)cc23)C(C)C1 (stereo not given)
viability, T/C (compound 0.0316 µM): 95% and 99.2%
viability, T/C (compound 0.1 µM): 94.5% and 92.9%
viability, T/C (compound 0.316 µM): 98.5% and 113%
viability, T/C (compound 1 µM): 108% and 115%
viability, T/C (compound 3.16 µM): 107% and 117%
viability, T/C (compound 10 µM): 98% and 109%
IC50 (curve of compound): > 10000 nM

Further lines, with some results ahead:

IC50 [1]: < 31.6 nM
IC50 [2]: < 31.6 nM
IC50 [3]: 54.3 nM
IC50 [4]: 53.7 nM
IC50 [5]: 48.9 nM
IC50 [6]: 44.9 nM
SMILES: Nc1ccn(C2OC(CO)C(O)C2(F)F)c(=O)n1 (stereo not given) + CNC(=O)c1ccc(Nc2nc(OC3CCCC3)c3c(-c4ccc5nc(C)oc5c4)c[nH]c3n2)c(OC)c1
viability, T/C [7]: 50.8%
viability, T/C [8]: 36.9%
viability, T/C [9]: 27.4%
viability, T/C [10]: 34.7%
viability, T/C [11]: 39%
viability, T/C [12]: 34.4%
viability, T/C [13]: 57.3%
viability, T/C [14]: 33.6%
viability, T/C [15]: 26.9%
viability, T/C [16]: 36.3%
viability, T/C [17]: 36.4%
viability, T/C [18]: 34.7%
viability, T/C [19]: 63.4%
viability, T/C [20]: 34.5%
viability, T/C [21]: 32.2%
viability, T/C [22]: 29.6%
viability, T/C [23]: 39.5%
viability, T/C [24]: 37%
viability, T/C [25]: 65.3%
viability, T/C [26]: 32.6%
viability, T/C [27]: 23.9%
viability, T/C [28]: 29%
viability, T/C [29]: 36.4%
viability, T/C [30]: 28.7%
viability, T/C [31]: 63%
viability, T/C [32]: 24.2%
viability, T/C [33]: 26.2%
viability, T/C [34]: 24.3%
viability, T/C [35]: 34.3%
viability, T/C [36]: 33.6%
viability, T/C [37]: 60.2%
viability, T/C [38]: 26.9%
viability, T/C [39]: 21.4%
viability, T/C [40]: 22.6%
viability, T/C [41]: 26.5%
viability, T/C [42]: 31.5%

IC50 (curve of compound): 266 nM and 257 nM
SMILES: COc1cccc2c1C(=O)c1c(O)c3c(c(O)c1C2=O)CC(O)(C(=O)CO)CC3OC1CC(N)C(O)C(C)O1 (stereo not given)
viability, T/C (compound 0.0316 µM): 75.6% and 69%
viability, T/C (compound 0.1 µM): 76.5% and 74%
viability, T/C (compound 0.316 µM): 43.8% and 43.9%
viability, T/C (compound 1 µM): 14% and 12.3%
viability, T/C (compound 3.16 µM): 0.38% and 0.72%
viability, T/C (compound 10 µM): 0.37% and 0.77%
